Source: US12503453B2, “USP7 inhibition” (Dana-Farber Cancer Institute, Inc., priority 2018, dated 2025)

Assays:
[1] = tested on: Ewing sarcoma cell lines, TP53 WT and mutant; assay: Cell proliferation (CellTiter-Glo), panel of Ewing sarcoma cell lines; type: cell-based; details: same set of cell lines
Protocol: Cells were plated in 384-well culture-treated plates and allowed to settle overnight. After drug treatment and appropriate incubation time, cell viability was assessed using the CellTiter-Glo Luminescent Cell Viability Assay (Promega). Luminescence was read on a Fluostar Omega Reader (BMG Labtech).

[2] = tested on: Ewing sarcoma cell lines, TP53 WT and mutant; details: recently reported study; cited from earlier work
full length USP7 = full length USP7 (Homo sapiens (Human), UniProt Q93009); assay: Ub-AMC kinetic assay (ki and kinact); type: biochemical; details: pre-incubation 5 min-3 hours; read-out: inhibition constant (Ki)
Sequence of full length USP7 (Q93009 whole entry): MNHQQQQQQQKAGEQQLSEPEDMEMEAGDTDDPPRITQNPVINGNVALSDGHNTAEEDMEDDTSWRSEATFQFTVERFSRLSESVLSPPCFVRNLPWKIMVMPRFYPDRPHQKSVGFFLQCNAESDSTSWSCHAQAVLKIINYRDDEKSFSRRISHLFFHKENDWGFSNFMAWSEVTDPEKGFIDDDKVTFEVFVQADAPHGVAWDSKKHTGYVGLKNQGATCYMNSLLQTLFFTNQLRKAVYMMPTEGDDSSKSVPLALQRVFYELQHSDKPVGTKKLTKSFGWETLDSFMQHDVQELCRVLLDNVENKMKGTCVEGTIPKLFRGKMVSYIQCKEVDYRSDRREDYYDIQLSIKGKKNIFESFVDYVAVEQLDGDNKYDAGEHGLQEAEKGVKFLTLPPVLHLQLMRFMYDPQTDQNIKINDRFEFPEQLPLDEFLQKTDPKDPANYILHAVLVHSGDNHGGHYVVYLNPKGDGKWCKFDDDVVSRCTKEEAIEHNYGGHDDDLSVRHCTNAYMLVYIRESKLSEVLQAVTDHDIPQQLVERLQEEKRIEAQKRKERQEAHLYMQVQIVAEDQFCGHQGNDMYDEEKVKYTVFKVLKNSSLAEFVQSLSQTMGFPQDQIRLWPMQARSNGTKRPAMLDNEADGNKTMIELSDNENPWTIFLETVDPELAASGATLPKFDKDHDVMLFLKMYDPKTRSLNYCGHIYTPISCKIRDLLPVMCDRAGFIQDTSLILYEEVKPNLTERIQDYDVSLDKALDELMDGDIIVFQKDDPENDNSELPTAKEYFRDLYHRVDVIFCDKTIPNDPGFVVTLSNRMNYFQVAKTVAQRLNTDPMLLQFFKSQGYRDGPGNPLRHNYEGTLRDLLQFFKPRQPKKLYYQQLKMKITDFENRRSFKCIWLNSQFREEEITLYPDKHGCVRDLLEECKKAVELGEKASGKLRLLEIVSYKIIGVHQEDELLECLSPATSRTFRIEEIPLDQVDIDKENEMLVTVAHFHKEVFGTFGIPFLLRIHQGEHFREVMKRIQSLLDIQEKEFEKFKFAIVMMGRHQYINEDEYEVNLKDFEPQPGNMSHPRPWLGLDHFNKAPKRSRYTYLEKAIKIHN
Protocol: Full length USP7 was tested for its activity in Ubiquitin-AMC assay in presence or absence of inhibitors. USP7 (5 nM) was pre-incubated for 6 hours at room temperature with different concentrations of inhibitors or DMSO as a control in 50 mM HEPES pH 7.5, 0.5 mM EDTA, 11 μM ovalbumin, and 5 mM DTT. Ubiquitin-AMC (Boston Biochem) was then added to a final concentration of 500 nM. The initial rate of the reaction was measured by collecting fluorescence data at one minute intervals over 30-minute period using a Clariostar fluorescence plate reader at excitation and emission wavelength of 345 and 445 nm respectively. The calculated initial rate values were plotted against inhibitor concentrations to determine IC50s. All the experimental data were plotted using Prism GraphPad. All assays for each compound were performed at least twice for each compound.
To determine kobs, the time course curves were fit to the equation y=ymax(1−exp(−kobs·x)). The kobs values were then plotted against the inhibitor concentrations and fit to the equation y=kinact/(1+(ki/x)) to obtain the values for ki and kinact.

Structure (SMILES): CC(=O)c1cc([N+](=O)[O-])c(Sc2cccc(Cl)c2Cl)s1 [P5091]
- specificity for TP53-WT expressing cells [1]: little to no specificity for TP53-WT expressing cells
- activity against WT and TP53-KO Ewing Sarcoma cells [2]: equipotent activity against WT and TP53-KO Ewing Sarcoma cells

Structure (SMILES): CN1CCN(CCC(=O)Nc2ccc3c(=O)n(CC4(O)CCN(C(=O)CCCCNC(=O)c5ccc6c(Cl)c7c(nc6c5)CCCC7)CC4)cnc3c2)CC1 [compound 1, 9-chloro-N-(5-(4-hydroxy-4-((7-(3-(4-methylpiperazin-1-yl)propanamido)-4-oxoquinazolin-3(4H)-yl)methyl)piperidin-1-yl)-5-oxopentyl)-5,6,7,8-tetrahydroacridine-3-carboxamide]
- Ki (full length USP7): 2.8 ± 1.8 nM
